{
  "source": "patent US9505745B2",
  "about": "“Enhancer of zeste homolog 2 inhibitors” (GlaxoSmithKline Intellectual Property (No.2) Limited, priority 2013, dated 2016)",
  "note": "Where a name gives a salt, the structure may show the parent alone.",
  "data": [
    {"biological_target": "EZH2 within the PRC2 complex (Homo sapiens (Human), UniProt Q15910)", "sequence (Q15910 whole entry)": "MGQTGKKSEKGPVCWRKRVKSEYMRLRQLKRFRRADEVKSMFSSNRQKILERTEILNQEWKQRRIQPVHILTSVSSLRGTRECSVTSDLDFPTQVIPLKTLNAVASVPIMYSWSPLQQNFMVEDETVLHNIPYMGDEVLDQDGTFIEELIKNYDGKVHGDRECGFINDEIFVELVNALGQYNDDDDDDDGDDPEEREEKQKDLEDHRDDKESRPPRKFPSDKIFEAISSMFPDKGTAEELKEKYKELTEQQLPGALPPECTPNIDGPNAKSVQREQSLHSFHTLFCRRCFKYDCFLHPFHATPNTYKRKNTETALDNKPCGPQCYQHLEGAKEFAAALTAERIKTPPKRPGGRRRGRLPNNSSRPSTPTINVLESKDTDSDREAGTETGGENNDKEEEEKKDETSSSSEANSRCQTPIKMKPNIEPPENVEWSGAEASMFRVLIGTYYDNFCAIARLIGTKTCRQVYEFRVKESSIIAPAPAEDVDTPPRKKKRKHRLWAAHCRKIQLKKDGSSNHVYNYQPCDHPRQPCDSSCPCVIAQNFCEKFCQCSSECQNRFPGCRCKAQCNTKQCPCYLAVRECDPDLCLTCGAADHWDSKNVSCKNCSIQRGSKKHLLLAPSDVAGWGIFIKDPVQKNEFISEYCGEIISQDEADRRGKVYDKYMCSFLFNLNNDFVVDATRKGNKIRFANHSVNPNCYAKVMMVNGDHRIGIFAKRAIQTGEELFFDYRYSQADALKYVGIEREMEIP", "sequence (O75530 whole entry partner)": "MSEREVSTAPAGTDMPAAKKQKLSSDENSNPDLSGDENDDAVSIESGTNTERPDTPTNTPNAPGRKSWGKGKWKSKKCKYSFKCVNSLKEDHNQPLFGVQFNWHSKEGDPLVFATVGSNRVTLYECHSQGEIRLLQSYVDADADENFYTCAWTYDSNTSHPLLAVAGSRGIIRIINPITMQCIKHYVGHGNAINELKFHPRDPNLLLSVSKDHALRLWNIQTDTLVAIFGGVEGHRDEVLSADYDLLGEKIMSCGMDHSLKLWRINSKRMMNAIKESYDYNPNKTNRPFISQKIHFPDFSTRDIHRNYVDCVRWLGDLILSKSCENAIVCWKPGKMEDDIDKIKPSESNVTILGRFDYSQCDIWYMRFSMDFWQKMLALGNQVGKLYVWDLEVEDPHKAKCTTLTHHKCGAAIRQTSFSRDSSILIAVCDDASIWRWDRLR", "sequence (Q15022 whole entry partner)": "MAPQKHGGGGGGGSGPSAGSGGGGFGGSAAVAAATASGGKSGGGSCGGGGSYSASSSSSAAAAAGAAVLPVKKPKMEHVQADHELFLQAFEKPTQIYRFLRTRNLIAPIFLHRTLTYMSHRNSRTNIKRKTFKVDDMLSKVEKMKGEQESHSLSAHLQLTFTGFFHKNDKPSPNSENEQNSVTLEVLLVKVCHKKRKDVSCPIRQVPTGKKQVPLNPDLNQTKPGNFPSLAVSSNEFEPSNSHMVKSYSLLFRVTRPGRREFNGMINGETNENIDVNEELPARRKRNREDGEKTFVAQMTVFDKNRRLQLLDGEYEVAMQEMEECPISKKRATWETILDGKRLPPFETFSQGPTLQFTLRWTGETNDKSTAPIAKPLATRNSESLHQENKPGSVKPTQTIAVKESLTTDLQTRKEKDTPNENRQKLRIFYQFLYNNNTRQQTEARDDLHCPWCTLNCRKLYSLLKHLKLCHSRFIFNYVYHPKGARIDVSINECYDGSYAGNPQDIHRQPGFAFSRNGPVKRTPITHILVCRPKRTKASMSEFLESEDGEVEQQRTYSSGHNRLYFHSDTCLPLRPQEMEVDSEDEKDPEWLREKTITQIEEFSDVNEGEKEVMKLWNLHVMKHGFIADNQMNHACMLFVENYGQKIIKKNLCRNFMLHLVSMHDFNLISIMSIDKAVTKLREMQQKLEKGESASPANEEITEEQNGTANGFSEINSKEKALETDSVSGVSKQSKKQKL", "sequence (Q09028 whole entry partner)": "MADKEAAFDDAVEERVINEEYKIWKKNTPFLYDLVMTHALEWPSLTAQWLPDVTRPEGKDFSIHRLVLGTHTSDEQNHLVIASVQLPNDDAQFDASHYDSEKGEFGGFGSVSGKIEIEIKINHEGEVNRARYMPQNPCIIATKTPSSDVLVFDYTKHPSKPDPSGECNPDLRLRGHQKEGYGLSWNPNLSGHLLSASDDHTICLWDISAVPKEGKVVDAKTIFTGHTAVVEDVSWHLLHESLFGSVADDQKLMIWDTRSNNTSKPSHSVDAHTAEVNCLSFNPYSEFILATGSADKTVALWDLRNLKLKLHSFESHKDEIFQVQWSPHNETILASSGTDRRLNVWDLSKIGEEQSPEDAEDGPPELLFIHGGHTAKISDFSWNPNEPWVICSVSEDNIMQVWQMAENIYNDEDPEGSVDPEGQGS", "sequence (Q6ZN18 whole entry partner)": "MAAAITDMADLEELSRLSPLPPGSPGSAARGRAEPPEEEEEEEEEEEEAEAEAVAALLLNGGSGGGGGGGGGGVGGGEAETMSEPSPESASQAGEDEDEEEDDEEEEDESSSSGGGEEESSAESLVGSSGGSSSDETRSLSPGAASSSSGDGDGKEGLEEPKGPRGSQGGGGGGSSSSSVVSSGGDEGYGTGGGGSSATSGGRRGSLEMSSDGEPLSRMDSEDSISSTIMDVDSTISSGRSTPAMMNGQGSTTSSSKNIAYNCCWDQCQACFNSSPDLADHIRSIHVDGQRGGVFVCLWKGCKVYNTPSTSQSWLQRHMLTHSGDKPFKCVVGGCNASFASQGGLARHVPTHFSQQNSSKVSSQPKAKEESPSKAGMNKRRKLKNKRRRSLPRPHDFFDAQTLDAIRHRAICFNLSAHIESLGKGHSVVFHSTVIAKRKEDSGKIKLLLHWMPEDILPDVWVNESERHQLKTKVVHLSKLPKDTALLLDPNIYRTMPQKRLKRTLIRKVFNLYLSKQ", "experiment": "EZH2 methyltransferase SPA, biotinylated histone H3K27 peptide substrate (Assay Protocol 2)", "type": "biochemical", "settings": "3H-SAM, ≦10 nM approaches limit of detection", "method": "Compounds contained herein were evaluated for their ability to inhibit the methyltransferase activity of EZH2 within the PRC2 complex. Human PRC2 complex was prepared by co-expressing each of the 5 member proteins (FLAG-EZH2, EED, SUZ12, RbAp48, AEBP2) in Sf9 cells followed by co-purification. Enzyme activity was measured in a scintillation proximity assay (SPA) where a tritiated methyl group is transferred from 3H-SAM to a lysine residue on a biotinylated, unmethylated peptide substrate derived from histone H3. The peptides were captured on streptavidin-coated SPA beads and the resulting signal was read on a ViewLux plate reader.\nPart A. Compound Preparation\n• 4. Prepare 10 mM stock of compounds from solid in 100% DMSO. • 5. Set up an 11-point serial dilution (1:4 dilution, top concentration 10 mM) in 100% DMSO for each test compound in a 384 well plate leaving columns 6 and 18 for DMSO controls. • 6. Dispense 10 nL of compound from the dilution plate into reaction plates (Corning, 384-well polystyrene NBS, Cat#3673). Part B. Reagent Preparation Prepare the following solutions: • 7. 1× Base Buffer, 50 mM Tris-HCl, pH 8, 2 mM MgCl2: Per 1 L of base buffer, combine 1 M Tris-HCl, pH 8 (50 mL), 1 M MgCl2 (2 mL), and distilled water (948 mL). • 8. 1× Assay Buffer: Per 10 mL of 1× Assay Buffer, combine 1× Base Buffer (9.96 mL), 1 M DTT (40 uL), and 10% Tween-20 (1 uL) to provide a final concentration of 50 mM Tris-HCl, pH 8, 2 mM MgCl2, 4 mM DTT, 0.001% Tween-20. • 9. 2× Enzyme Solution: Per 10 mL of 2× Enzyme Solution, combine 1× Assay Buffer (9.99 mL) and 3.24 uM EZH2 5 member complex (6.17 uL) to provide a final enzyme concentration of 1 nM. • 10. SPA Bead Solution: Per 1 mL of SPA Bead Solution, combine Streptavidin coated SPA beads (PerkinElmer, Cat#RPNQ0261, 40 mg) and 1× Assay Buffer (1 mL) to provide a working concentration of 40 mg/mL. • 11. 2× Substrate Solution: Per 10 mL of 2× Substrate Solution, combine 40 mg/mL SPA Bead Solution (375 uL), 1 mM biotinylated histone H3K27 peptide (200 uL), 12.5 uM 3H-SAM (240 uL; 1 mCi/mL), 1 mM cold SAM (57 uL), and 1× Assay Buffer (9.13 mL) to provide a final concentration of 0.75 mg/mL SPA Bead Solution, 10 uM biotinylated histone H3K27 peptide, 0.15 uM 3H-SAM (˜12 uCi/mL 3H-SAM), and 2.85 uM cold SAM. • 12. 2.67× Quench Solution: Per 10 mL of 2.67× Quench Solution, combine 1× Assay Buffer (9.73 mL) and 10 mM cold SAM (267 uL) to provide a final concentration of 100 uM cold SAM. Part C. Assay Reaction in 384-well Grenier Bio-One Plates Compound Addition • 3. Stamp 10 nL/well of 1000× Compound to test wells (as noted above). • 4. Stamp 10 nL/well of 100% DMSO to columns 6 & 18 (high and low controls, respectively). Assay • 10. Dispense 5 uL/well of 1× Assay Buffer to column 18 (low control reactions). • 11. Dispense 5 uL/well of 2× Substrate Solution to columns 1-24 (note: substrate solution should be mixed to ensure homogeneous bead suspension before dispensing into matrix reservoir). • 12. Dispense 5 uL/well of 2× Enzyme Solution to columns 1-17, 19-24. • 13. Incubate the reaction for 60 min at room temperature. Quench • 5. Dispense 6 uL/well of the 2.67× Quench Solution to columns 1-24. • 6. Seal assay plates and spin for ˜1 min at 500 rpm. • 7. Dark adapt plates in the ViewLux instrument for 15-60 min. Read plates • 2. Read the assay plates on the Viewlux Plate Reader utilizing the 613 nm emission filter or clear filter (300 s exposure). Reagent addition can be done manually or with automated liquid handler. Results\nPercent inhibition was calculated relative to the DMSO control for each compound concentration and the resulting values were fit using standard IC50 fitting parameters within the ABASE data fitting software package.", "units": {"IC50": "nM"}, "values": [
      {"smiles": "CCN(c1sc(C2CCNCC2)c(C(=O)NCc2c(C)cc(C)[nH]c2=O)c1C)C1CCOCC1", "note": "[Example 60, N-((4,6-Dimethyl-2-oxo-1,2-dihydropyridin-3-yl)methyl)-5-(ethyl(tetrahydro-2H-pyran-4-yl)amino)-4-methyl-2-(piperidin-4-yl)thiophene-3-carboxamide hydrochloride]", "IC50": 631},
      {"smiles": "CCN(c1sc(-c2ccoc2)c(C(=O)NCc2c(C)cc(C)[nH]c2=O)c1C)[C@H]1CC[C@H](N(C)C)CC1", "note": "[Example 77, N-((4,6-dimethyl-2-oxo-1,2-dihydropyridin-3-yl)methyl)-5-(((trans)-4-(dimethylamino)cyclohexyl)(ethyl)amino)-2-(furan-3-yl)-4-methylthiophene-3-carboxamide]", "IC50": 32},
      {"smiles": "Cc1cc(C)c(CNC(=O)c2csc(-c3cccc4c3CCNC4)c2C)c(=O)[nH]1", "note": "[Example 70, N-((4,6-Dimethyl-2-oxo-1,2-dihydropyridin-3-yl)methyl)-4-methyl-5-(1,2,3,4-tetrahydroisoquinolin-5-yl)thiophene-3-carboxamide hydrochloride]", "IC50": 100},
      {"smiles": "CCN(c1sc(C2=CCN(C)CC2)c(C(=O)NCc2c(C)cc(C)[nH]c2=O)c1C)C1CCOCC1", "note": "[Example 61, N-((4,6-Dimethyl-2-oxo-1,2-dihydropyridin-3-yl)methyl)-5-(ethyl(tetrahydro-2H-pyran-4-yl)amino)-4-methyl-2-(1-methyl-1,2,3,6-tetrahydropyridin-4-yl)thiophene-3-carboxamide]", "IC50": 501},
      {"smiles": "CCOC(=O)N(CC)c1scc(C(=O)NCc2c(C)cc(C)[nH]c2=O)c1C", "note": "[Example 65, Ethyl (4-(((4,6-dimethyl-2-oxo-1,2-dihydropyridin-3-yl)methyl)carbamoyl)-3-methylthiophen-2-yl)(ethyl)carbamate]", "IC50": 200},
      {"smiles": "CCN(c1sc(-c2ccco2)c(C(=O)NCc2c(C)cc(C)[nH]c2=O)c1C)C1CCOCC1", "note": "[Example 76, N-((4,6-dimethyl-2-oxo-1,2-dihydropyridin-3-yl)methyl)-5-(ethyl(tetrahydro-2H-pyran-4-yl)amino)-2-(furan-2-yl)-4-methylthiophene-3-carboxamide]", "IC50": 32},
      {"smiles": "CCC(c1scc(C(=O)NCc2c(C)cc(C)[nH]c2=O)c1C)[C@H]1CC[C@H](N)CC1", "note": "(stereo partly drawn) [Example 43, 5-(1-((trans)-4-Aminocyclohexyl)propyl)-N-((4,6-dimethyl-2-oxo-1,2-dihydropyridin-3-yl)methyl)-4-methylthiophene-3-carboxamide]", "IC50": 16},
      {"smiles": "CCN(CC)c1sc(Br)c(C(=O)NCc2c(C)cc(C)[nH]c2=O)c1C", "note": "[Example 52, 2-Bromo-5-(diethylamino)-N-((4,6-dimethyl-2-oxo-1,2-dihydropyridin-3-yl)methyl)-4-methylthiophene-3-carboxamide]", "IC50": 316},
      {"smiles": "CCN(c1sc(C2CCN(S(C)(=O)=O)C2)c(C(=O)NCc2c(C)cc(C)[nH]c2=O)c1C)C1CCOCC1", "note": "(centres unmarked) [Example 62, N-((4,6-Dimethyl-2-oxo-1,2-dihydropyridin-3-yl)methyl)-5-(ethyl(tetrahydro-2H-pyran-4-yl)amino)-4-methyl-2-(1-(methylsulfonyl)pyrrolidin-3-yl)thiophene-3-carboxamide]", "IC50": 501},
      {"smiles": "CCC(c1scc(C(=O)NCc2c(C)cc(C)[nH]c2=O)c1C)C1CCNCC1", "note": "(centres unmarked) [Example 40, N-((4,6-Dimethyl-2-oxo-1,2-dihydropyridin-3-yl)methyl)-4-methyl-5-(1-(piperidin-4-yl)propyl)thiophene-3-carboxamide]", "IC50": 20},
      {"smiles": "CCC(=C1CCNCC1)c1scc(C(=O)NCc2c(C)cc(C)[nH]c2=O)c1C", "note": "[Example 48, N-((4,6-dimethyl-2-oxo-1,2-dihydropyridin-3-yl)methyl)-4-methyl-5-(1-(piperidin-4-ylidene)propyl)thiophene-3-carboxamide]", "IC50": "≤ 10"},
      {"smiles": "CCC(c1scc(C(=O)NCc2c(C)cc(C)[nH]c2=O)c1C)[C@H]1CC[C@H](N(C)C)CC1", "note": "(single isomer, unassigned; (-)) [Example 44, (−)-N-((4,6-Dimethyl-2-oxo-1,2-dihydropyridin-3-yl)methyl)-5-(1-((trans)-4-(dimethylamino)cyclohexyl)propyl)-4-methylthiophene-3-carboxamide]", "IC50": 20},
      {"smiles": "CCC(c1scc(C(=O)NCc2c(C)cc(C)[nH]c2=O)c1C)[C@H]1CC[C@@H](N(C)C)CC1", "note": "(single isomer, unassigned; (-)) [Example 47, (−)-N-((4,6-Dimethyl-2-oxo-1,2-dihydropyridin-3-yl)methyl)-5-(1-((cis)-4-(dimethylamino)cyclohexyl)propyl)-4-methylthiophene-3-carboxamide]", "IC50": 13},
      {"smiles": "C/C=C(/CCN1CCOCC1)c1scc(C(=O)NCc2c(C)cc(C)[nH]c2=O)c1C", "note": "[Example 71, (Z)—N-((4,6-Dimethyl-2-oxo-1,2-dihydropyridin-3-yl)methyl)-4-methyl-5-(5-morpholinopent-2-en-3-yl)thiophene-3-carboxamide]", "IC50": 1000},
      {"smiles": "CCN(c1sc(C#N)c(C(=O)NCc2c(C)cc(C)[nH]c2=O)c1C)C1CCOCC1", "note": "[Example 55, 2-Cyano-N-((4,6-dimethyl-2-oxo-1,2-dihydropyridin-3-yl)methyl)-5-(ethyl(tetrahydro-2H-pyran-4-yl)amino)-4-methylthiophene-3-carboxamide hydrochloride]", "IC50": 79},
      {"smiles": "C=C(c1scc(C(=O)NCc2c(C)cc(C)[nH]c2=O)c1C)C1CCNCC1", "note": "[Example 49, N-((4,6-dimethyl-2-oxo-1,2-dihydropyridin-3-yl)methyl)-4-methyl-5-(1-(piperidin-4-yl)vinyl)thiophene-3-carboxamide]", "IC50": 126},
      {"smiles": "CCN(c1sc(-c2cnn(C)c2)c(C(=O)NCc2c(C)cc(C)[nH]c2=O)c1C)C1CCOCC1", "note": "[Example 78, N-((4,6-dimethyl-2-oxo-1,2-dihydropyridin-3-yl)methyl)-5-(ethyl(tetrahydro-2H-pyran-4-yl)amino)-4-methyl-2-(1-methyl-1H-pyrazol-4-yl)thiophene-3-carboxamide]", "IC50": 100},
      {"smiles": "C/C=C(/CCCN1CCC(N(C)C)CC1)c1scc(C(=O)NCc2c(C)cc(C)[nH]c2=O)c1C", "note": "[Example 74, (Z)—N-((4,6-Dimethyl-2-oxo-1,2-dihydropyridin-3-yl)methyl)-5-(6-(4-(dimethylamino)piperidin-1-yl)hex-2-en-3-yl)-4-methylthiophene-3-carboxamide formate]", "IC50": 200},
      {"smiles": "CCN(c1sc(N2CCN(C)CC2)c(C(=O)NCc2c(C)cc(C)[nH]c2=O)c1C)C1CCOCC1", "note": "[Example 56, N-((4,6-Dimethyl-2-oxo-1,2-dihydropyridin-3-yl)methyl)-5-(ethyl(tetrahydro-2H-pyran-4-yl)amino)-4-methyl-2-(4-methylpiperazin-1-yl)thiophene-3-carboxamide hydrochloride]", "IC50": 501},
      {"smiles": "CCN(c1sc(C2CCN(S(C)(=O)=O)CC2)c(C(=O)NCc2c(C)cc(C)[nH]c2=O)c1C)C1CCOCC1", "note": "[Example 63, N-((4,6-Dimethyl-2-oxo-1,2-dihydropyridin-3-yl)methyl)-5-(ethyl(tetrahydro-2H-pyran-4-yl)amino)-4-methyl-2-(1-(methylsulfonyl)piperidin-4-yl)thiophene-3-carboxamide]", "IC50": 501}
    ]}
  ]
}
